Assay results reported in PMC2394453 (British Journal of Cancer, 2003).

Assay: Plasma pharmacokinetics of simvastatin and simvastatin hydroxy acid after oral simvastatin alone and combined with imatinib in CML patients (LC/MS/MS)
Settings: for t1/2: simvastatin in plasma, mean±s.d., in h

Compound `CCC(C)(C)C(=O)O[C@H]1C[C@@H](C)C=C2C=C[C@H](C)[C@H](CC[C@@H]3C[C@@H](O)CC(=O)O3)[C@H]21` [Simvastatin] has a Tmax (both, human, plasma, po, 40 mg) of 1 h, a Vd/F (both, human, plasma, po, 40 mg) of 3120 ± 2750 L and a half-life (both, human, plasma, po, 40 mg) of 1.4 h. The “mean reduction of total-body clearance from plasma (CL/F)” value (simvastatin 40 mg coadministered with imatinib 400 mg, P<0.001) was 70%, the t1/2 (40 mg simvastatin oral alone (day 1)) was 1.4±0.8 and the t1/2 (40 mg simvastatin oral plus 400 mg imatinib oral (day 8)) was 2.7±1.3.
